Patent publication US9388141B2, “Acylaminocycloalkyl compounds suitable for treating disorders that respond to modulation of dopamine D3 receptor” (AbbVie Deutschland GmbH & Co. KG, priority 2013, dated 2016)

Key:
[1] = target: T1, human dopamine D3 receptors (Homo sapiens, UniProt P35462); assay: Dopamine D3 receptor binding, [125I]-iodosulpride displacement; details: membranes of HEK-293 cells with human D3 receptors, 0.1 nM [125I]-iodosulpride
T1 construct: expressed in transfected cells; host or cells: HEK-293
T1 sequence (P35462 whole entry): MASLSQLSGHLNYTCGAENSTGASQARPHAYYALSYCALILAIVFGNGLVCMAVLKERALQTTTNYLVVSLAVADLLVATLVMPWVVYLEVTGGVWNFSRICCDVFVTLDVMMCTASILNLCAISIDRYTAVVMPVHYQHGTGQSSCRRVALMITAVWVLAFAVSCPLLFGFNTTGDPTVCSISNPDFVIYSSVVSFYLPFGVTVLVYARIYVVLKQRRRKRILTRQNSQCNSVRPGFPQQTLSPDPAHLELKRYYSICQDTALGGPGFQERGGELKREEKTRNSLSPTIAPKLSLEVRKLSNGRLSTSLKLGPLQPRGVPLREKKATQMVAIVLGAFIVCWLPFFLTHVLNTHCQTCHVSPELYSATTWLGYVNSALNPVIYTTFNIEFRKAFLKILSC
Protocol: (§1) The substance to be tested was either dissolved in methanol/Chremophor® (BASF SE) or in dimethyl sulfoxide and then diluted with water to the desired concentration.
(§2) Each assay mixture was run in triplicate. • The incubation buffer contained 50 mM tris, 120 mM NaCl, 5 mM KCl, 2 mM CaCl2, 2 mM MgCl2 and 0.1% bovine serum albumin, 10 μM quinolone and 0.1% ascorbic acid (prepared fresh daily). […] Each assay mixture was run in triplicate. • The incubation buffer contained 50 mM tris, 120 mM NaCl, 5 mM KCl, 2 mM CaCl2, 2 mM MgCl2 and 0.1% bovine serum albumin. The buffer was adjusted to pH 7.4 with HCl. c) Measurement and Analysis: • After having been incubated at 25° C. for 60 minutes, the assay mixtures were filtered through a Whatman GF/B glass fiber filter under vacuum using a cell collecting device. The filters were transferred to scintillation viols using a filter transfer system. After 4 ml of Ultima Gold® (Packard) have been added, the samples were shaken for one hour and the radioactivity was then counted in a Beta-Counter (Packard, Tricarb 2000 or 2200CA).

[2] = Determination of the microsomal half-life / microsomal clearance; assay type: in vitro ADME; details: human liver microsomes, 0.5 μM test substance, 0.25 mg microsomal protein/ml, pH 7.4, 37° C.
Protocol: The metabolic stability of the compounds of the invention was determined in the following assay.
The test substances were incubated in a concentration of 0.5 μM as follows:
0.5 μM test substance are preincubated together with liver microsomes from different species (from rat, human or other species) (0.25 mg of microsomal protein/ml) in 0.05 M potassium phosphate buffer of pH 7.4 in microtiter plates at 37° C. for 5 min. The reaction is started by adding NADPH (1 mg/mL). After 0, 5, 10, 15, 20 and 30 min, 50 μl aliquots are removed, and the reaction is immediately stopped and cooled with the same volume of acetonitrile. The samples are frozen until analyzed. The remaining concentration of undegraded test substance is determined by MSMS. The half-life (T1/2) is determined from the gradient of the signal of test substance/unit time plot, it being possible to calculate the half-life of the test substance, assuming first order kinetics, from the decrease in the concentration of the compound with time. The microsomal clearance (mCl) is calculated from mCl=1n2/T1/2/(content of microsomal protein in mg/ml)×1000 [[…]] (modified from references: Di, The Society for Biomoleculur Screening, 2003, 453-462; Obach, DMD, 1999 vol 27. N 11, 1350-1359).

[3] = target: T2, human dopamine D2L receptors (long isoform) (Homo sapiens, UniProt P14416); assay: Dopamine D2L receptor binding, [125I]-iodospiperone displacement; details: selectivity ratio Ki (D2L)/Ki (D3)
T2 construct: expressed in transfected cells; host or cells: HEK-293
T2 sequence (P14416 whole entry, canonical isoform): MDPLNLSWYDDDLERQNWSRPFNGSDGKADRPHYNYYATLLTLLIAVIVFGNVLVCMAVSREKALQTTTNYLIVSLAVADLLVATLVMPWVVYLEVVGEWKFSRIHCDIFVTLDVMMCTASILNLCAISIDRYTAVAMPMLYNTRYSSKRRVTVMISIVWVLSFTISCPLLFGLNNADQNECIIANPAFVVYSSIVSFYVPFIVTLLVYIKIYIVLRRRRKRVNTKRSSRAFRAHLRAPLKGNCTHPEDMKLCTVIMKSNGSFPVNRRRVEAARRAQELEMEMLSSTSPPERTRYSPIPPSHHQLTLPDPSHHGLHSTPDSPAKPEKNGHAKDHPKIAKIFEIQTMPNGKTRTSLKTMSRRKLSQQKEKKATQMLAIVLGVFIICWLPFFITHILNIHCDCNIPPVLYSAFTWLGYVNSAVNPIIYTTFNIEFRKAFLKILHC
Protocol: as §1, §2

Structure (SMILES) | Ki [1] [µM] | Human mCl [2] | D2/D3, Ki (D2L)/Ki (D3) [3]
CC(C)(C)c1nc(C2CCC2)cc(N2CCN(CC[C@H]3CC[C@H](NC(=O)[C@H]4C[C@@H](O)C4)CC3)CC2)n1 [Compound 13, Cis-N-[trans-4-[2-[4-(2-tert-butyl-6-cyclobutyl-pyrimidin-4-yl)piperazin-1-yl]ethyl]cyclohexyl]-3-hydroxy-cyclobutanecarboxamide] | < 0.01 | ∘ (∘: >120 μl min^−1 mg^−1) | ++ (++>20)
CC(C)(C)c1nc(C2CCC2)cc(N2CCN(CC[C@H]3CC[C@H](NC(=O)[C@H]4CC[C@@H](O)CC4)CC3)CC2)n1.O=C(O)C(F)(F)F [Compound 14, Cis-N-[trans-4-[2-[4-(2-tert-butyl-6-cyclobutyl-pyrimidin-4-yl)piperazin-1-yl]ethyl]cyclohexyl]-4-hydroxy-cyclohexanecarboxamide; 2,2,2-trifluoroacetic acid] | < 0.01 | ∘ (∘: >120 μl min^−1 mg^−1) | ++ (++>20)
CC(C)(C)c1nc(C2CCC2)cc(N2CCN(CC[C@H]3CC[C@@H](NC(=O)[C@H]4CC[C@@H](O)CC4)CC3)CC2)n1.O=C(O)C(F)(F)F [Compound 15, Cis-N-[cis-4-[2-[4-(2-tert-butyl-6-cyclobutyl-pyrimidin-4-yl)piperazin-1-yl]ethyl]cyclohexyl]-4-hydroxy-cyclohexanecarboxamide; 2,2,2-trifluoroacetic acid] | < 0.01 | ∘ (∘: >120 μl min^−1 mg^−1) | +++ (+++>50)
CC(C)(C)c1nc(C2CCC2)cc(N2CCN(CC[C@H]3C[C@H](NC(=O)[C@H]4CC[C@@H](O)CC4)C3)CC2)n1.O=C(O)C(F)(F)F [Compound 16, Cis-N-[trans-3-[2-[4-(2-tert-butyl-6-cyclobutyl-pyrimidin-4-yl)piperazin-1-yl]ethyl]cyclobutyl]-4-hydroxy-cyclohexanecarboxamide; 2,2,2-trifluoroacetic acid] | < 0.01 | ∘ (∘: >120 μl min^−1 mg^−1) | ++ (++>20)
COCCc1cc(N2CCN(CC[C@H]3CC[C@@H](NC(=O)[C@H]4C[C@@H](O)C4)CC3)CC2)nc(C(C)(C)C)n1 [Compound 17, cis-N-[cis-4-[2-[4-[2-tert-butyl-6-(2-methoxyethyl)pyrimidin-4-yl]piperazin-1-yl]ethyl]cyclohexyl]-3-hydroxy-cyclobutanecarboxamide] | < 0.01 | ∘ (∘: >120 μl min^−1 mg^−1) | +++ (+++>50)
COCCc1cc(N2CCN(CC[C@H]3CC[C@H](NC(=O)[C@H]4C[C@@H](O)C4)CC3)CC2)nc(C(C)(C)C)n1 [Compound 18, cis-N-[trans-4-[2-[4-[2-tert-butyl-6-(2-methoxyethyl)pyrimidin-4-yl]piperazin-1-yl]ethyl]cyclohexyl]-3-hydroxy-cyclobutanecarboxamide] | < 0.01 | + (+: 20-120 μl min^−1 mg^−1) | +++ (+++>50)
CC(C)(C)c1cc(N2CCN(CC[C@H]3CC[C@H](NC(=O)[C@H]4CC[C@H](O)CC4)CC3)CC2)nc(C(C)(C)C)n1 [Compound 20, trans-N-[trans-4-[2-[4-(2,6-ditert-butylpyrimidin-4-yl)piperazin-1-yl]ethyl]cyclohexyl]-4-hydroxy-cyclohexanecarboxamide] | < 0.01 | + (+: 20-120 μl min^−1 mg^−1) | ++ (++>20)
CC(C)(C)c1nc(N2CCN(CC[C@H]3CC[C@H](NC(=O)[C@H]4CC[C@H](O)CC4)CC3)CC2)cc(C(F)(F)F)n1 [Compound 21, trans-N-[trans-4-[2-[4-[2-tert-butyl-6-(trifluoromethyl)pyrimidin-4-yl]piperazin-1-yl]ethyl]cyclohexyl]-4-hydroxy-cyclohexanecarboxamide] | < 0.01 | + (+: 20-120 μl min^−1 mg^−1) | ++ (++>20)
